Data on four molecules can be found in patent US20170246146A1, “POLYPHENOL FOR WOUND HEALING” (IC-MedTech Corporation, priority 2012, published 2017).

One series concerns intracellular peroxides. Briefly: Pro-oxidant production (DCFH-DA fluorescence). Format: cell-based. On the procedure: Production of intracellular peroxides was monitored spectrofluorometrically using dichlorofluorescein diacetate (DCFH-DA) as a fluorescent dye. Cell suspensions were treated with DCFH-DA at a final concentration of 100 μM in the medium. Oxidation of DCFH by peroxides yields dichlorofluorescein (DCF). Fluorescence was monitored at the excitation and emission wavelengths of 485 and 530 nm, respectively, using a fluorescence plate reader (50 cycles per 20 s at 37° C.) (Biotek Synergy HT®). Hydrogen peroxide (μM) was determined based on fluorescence generated from a hydrogen peroxide standard curve.
Apatone production of hydrogen peroxide was determined based a standard curve. Serial dilutions of Apatone (1000/10, 500/5, 250/2.5, 125/1.25, and 62.5/0.625) were then added to cells pre-treated with DCF-DA and read over a series of time points (1, 3, 5, and 24 hrs).

Series [1] concerns Human foreskin fibroblasts. Briefly: Scratch wound assay, fibroblasts. In kind it is cell-based. On the procedure:
(§1) A scratch wound assay was employed to evaluate the in vitro wound healing capacity of APATONE® and TOLECINE®. For the scratch-wound assay, cells were seeded on 6-well culture plates. At 80% cell confluence, a scratch-wound was produced using a sterile pipette tip and the size of the gap was measured and set to 100%. The cells were treated with test agents at various concentrations and the closing of the scratch-wound was measured at 24, 48, and 72 hrs. This experiment was performed three times for each cell line. Human foreskin fibroblasts were employed to optimize the assay because of the involvement of fibroblasts in wound healing. Human skin fibroblasts were scratched and then sham treated or treated with VC alone or APATONE® for 24 hrs.

The test system of a further series is prostaglandin E2 (PGE-2). Briefly: PGE-2 ELISA in EPIDERMFT assay medium. Format: cell-based, Human. The note with it: 24 hr exposure; negative control 6.1 ng/mL. On the procedure: (§2) Enzyme-linked immunosorbent assay (ELISA) kits were used to test for the presence of the cytokine interleukin-1 alpha (IL-1α) and the inflammatory mediator prostaglandin E2 (PGE-2) in the assay medium. Approximately 1 mL of the media from beneath the tissue millicells were sampled at the end of dosing and incubation. The assays were conducted according to the manufacturer's directions on both undiluted samples and samples diluted to 10% in order to obtain the detectable protein range of the ELISA kits. Protein standards were run with both ELISAs in order to derive standard curves.

In series [2] the test system is MatTek EPIDERMFT™ (Full Thickness skin) tissue. The series can be described thus: MatTek EPIDERM MTT Viability Assay (dermal irritation potential). Format: cell-based, Human. On the procedure:
The MatTek EPIDERM™ MTT Viability Assay was employed as a quantitative method for assessing the dermal irritation potential of TOLECINE®. MatTek EPIDERMFT™ (Full Thickness skin) tissue samples were treated with TOLECINE® (neat) or a positive control (1% Triton X-100) for various exposure times ranging from 1 to 24 hrs. Negative controls (undosed tissues) were tested for 8 hrs only. Following treatment, the viability of the tissues were determined using MTT uptake and conversion and the absorbance of each sample was measured at 540 nm using a reference wavelength of 690 nm. The viability was then expressed as a percent of control values. The mean percent of each time point was used to calculate an ET50, which represented the time at which the EPIDERMFT™ tissue viability was reduced 50% compared to the control tissue.

The test system of series [3] is full thickness excision wounds. Briefly: Wound healing studies in mice. The note with it: topical, days 0-5, by day 5, glycerin 27%. In kind it is in vivo, Balbc/J male mice. On the procedure: Sixty, 5-6 week old Balbc/J male mice were ear notched for identification and housed in individually and positively ventilated polycarbonate cages with HEPA filtered air. Bed-o-cob corn cob bedding were used and cages were changed every two weeks. The animal room was lighted entirely with artificial fluorescent lighting, with a controlled 12 hr light/dark cycle. The normal temperature and relative humidity ranges in the animal rooms were 22±4° C. and 50±15%, respectively. The animal rooms were set to have 15 air exchanges per hour. Filtered tap water, acidified to a pH of 2.8 to 3.1, and rodent chow were provided ad libitum.
Following a 5 to 7 days acclimation, mice were randomized by body weight into 6 cohorts of 10 mice each. On study day 0 (D0), mice were anesthetized and two full thickness excision wounds (˜6 mm) were made on the dorsum (backs) of mice. One of the wounds was covered using a semi-occlusive polyurethane dressing (TEGADERM™). […]
Wound measurements were made on days 5, 7, 9, and 11. […] Traces were captured by scan and analyzed by a computer imaging software. […]
After being wounded, the mice had saddles applied around the wounds to prevent cross contamination and wound closure due to constriction. […] At day 5, test agents were removed and changes in wound area were measured in an effort to gauge the persistence of the compounds in the wound site.

Another series deals with Keratinocytes. The series can be described thus: Scratch wound assay, keratinocytes. In kind it is cell-based. The note with it: compared with fibroblast data. On the procedure:
as §1
Keratinocytes were grown to 90% confluence and then scratched to generate a wound. Cells were then treated with sham (fresh media) or a single dose of APATONE® at 75 μM sodium ascorbate and 0.75 μM menadione sodium bisulfate. […] Without being limited by any theory, the decreased closure of APATONE® during the second 24 hrs probably reflects metabolism of the vitamins by the keratinocytes.

The test system of another series is VEGF. Briefly: VEGF production (VEGF Quantiglo Immunoassay). Format: cell-based, Human. The note with it: for VEGF: keratinocytes. On the procedure:
Human adult keratinocytes were plated into a 6 well plate and allowed to grow to >80% confluency. The back of a rubber scraper was then used to scratch each plate, creating a uniform linear wound across each well. Cells were then rinsed with media to remove non-adherent cells and drugs at indicated concentrations were added. Media aliquots were taken at 1, 3, 6, or 16 hrs and spun down at 6,250 rpm for 10 minutes. Supernatants were then collected and stored at −4 ° C. until assayed using the VEGF Quantiglo Immunoassay (Research and Development Systems) according to kit instructions.

Series [4] has as its system interleukin-1 alpha (IL-1α). Briefly: IL-1α ELISA in EPIDERMFT assay medium. Format: cell-based, Human. The note with it: 24 hr exposure; negative control 8.156 pg/mL. On the procedure: as §2

As for `Oc1ccc(C#Cc2ccc(O)cc2)cc1` [TOLECINE®, 4,4′-(ethyne-1,2-diyl)diphenol], in the series on intracellular peroxides (FIGS. 4-6), the “hydrogen peroxide production, dose dependence” value was “dose dependent”. For the same molecule, the “hydrogen peroxide production over time” value in the series on intracellular peroxides (keratinocytes exposed for 5 hrs or more) is on record as “continued to increase”. For the same molecule, the wound closure is reported as 85% in series [1] (2.5 μM, 24 hrs, sham 30%); 100% in series [1] (2.5 μM, 48 hrs, sham 80%); 85% in series [1] (5 μM, 24 hrs, sham 30%); 100% in series [1] (5 μM, 48 hrs, sham 80%); 100% in series [1] (10 μM, 24 hrs, sham 30%); 93% in series [3] (2.5% in glycerin). In series [3] (5% TOLECINE® in glycerin), this molecule registered a wound closure of 87%. The same molecule had a PGE-2 levels in the series with prostaglandin E2 (PGE-2) of 9.5 ng/mL. Moreover, the “ET50 (time at which tissue viability was reduced 50% compared to control)” value in series [2] (human) was “greater than 24 hrs”. In addition, in the series with Keratinocytes, the “wound closure in keratinocytes” value was “closely approximated that observed with fibroblasts”. Besides, the “VEGF” value in the series on VEGF (10 μM, 1 hr, sham 12.4) was found to be 32.6 pg/mL; with VEGF (10 μM, 3 hrs, sham 13.2), 29.4 pg/mL; in the series on VEGF (10 μM, 6 hrs, sham 42.0), 120 pg/mL; in the series with VEGF (10 μM, 6 hrs, sham 42.0, listed as TOL), 120.7 pg/mL; in the series on VEGF (10 μM, 16 hrs, sham 67.4) it was 237 pg/mL; with VEGF (10 μM, 16 hrs, sham 67.4, listed as TOL) it was 237.2 pg/mL. Besides, the “VEGF” value is 121.2 pg/mL with VEGF (20 μM, 1 hr, sham 12.4); 148.7 pg/mL in the series with VEGF (20 μM, 3 hrs, sham 13.2); 225 pg/mL in the series with VEGF (20 μM, 6 hrs, sham 42.0); 225.9 pg/mL in the series with VEGF (20 μM, 6 hrs, sham 42.0, listed as TOL); 457 pg/mL in the series with VEGF (20 μM, 16 hrs, sham 67.4); 457.2 pg/mL in the series with VEGF (20 μM, 16 hrs, sham 67.4, listed as TOL). For the same molecule, the “VEGF production, early time course” value in the series with VEGF (10 μM, first 3 hrs) is “lag in VEGF production”.

In the case of `O=C1O[C@H]([C@@H](O)CO)C(O)=C1O` [VC, L-ascorbic acid, reference compound], the “width of the scratch” value in series [1] (2,000 μM VC, at 24 hrs, 28.0 μm immediately after scratching (sham 15.8 to 8.3 μm)) is recorded as 16.9 μm. In series [1] (VC alone at 75 μM), the “activity in scratch wound assay” value was “not active”. The wound closed entry in series [1] (fibroblasts, after 24 hrs, FIG. 1 (VC 2000 μM), sham about 57%) is recorded as “about 43%”.

On to `Oc1ccc(C=Cc2cc(O)cc(O)c2)cc1` [resveratrol, reference compound], for which the “VEGF production compared with TOLECINE®” value with VEGF (20 μM each) is “less than the VEGF production by TOLECINE® at 20 μM”. The “VEGF” value in the series on VEGF (resveratrol 20 μM, 1 hr, sham 12.4) was 139.0 pg/mL; in the series on VEGF (resveratrol 20 μM, 3 hrs, sham 13.2), 166.7 pg/mL; in the series on VEGF (resveratrol 20 μM, 6 hrs, sham 42.0), 196 pg/mL; with VEGF (resveratrol 20 μM, 6 hrs, sham 42.0, listed as RES), 196.0 pg/mL; with VEGF (resveratrol 20 μM, 16 hrs, sham 67.4), 274 pg/mL; in the series with VEGF (resveratrol 20 μM, 16 hrs, sham 67.4, listed as RES) it was 274.1 pg/mL.

In the series on prostaglandin E2 (PGE-2), “Triton X-100 [positive control, reference compound]” came in with a PGE-2 levels of 1211 ng/mL. The “ET50 (time at which tissue viability was reduced 50% compared to control)” value in series [2] (TOLECINE® neat, positive control 1% Triton X-100, exposure 1 to 24 hrs, MTT) came to 10.4 h. The IL-1α levels in series [4] turned out to be 168 pg/mL.
